Where “and” joins values, the source holds several entries; their conditions need not be identical. Equal entries are not always repeated.
Legend:
Ub-PCNA in HEK293T cells = assay: Western blot of Ub-PCNA level in cells; assay type: cell-based, human
[1] = tested on: Ub-FANCD2 in HEK293T cells; assay: Western blot of Ub-FANCD2 level in cells; assay type: cell-based, human
USP1/UAF1 [2] = target: USP1/UAF1 (Homo sapiens, UniProt O94782); assay: gel-based K63-linked diubiquitin cleavage assay, USP1/UAF1; assay type: biochemical; conditions: IC50 USP1/UAF1, K63-linked diubiquitin substrate; NI = no significant inhibition at highest inhibitor concentration of 114 μM
USP1/UAF1 (Homo sapiens, UniProt O94782), sequence (O94782 whole entry): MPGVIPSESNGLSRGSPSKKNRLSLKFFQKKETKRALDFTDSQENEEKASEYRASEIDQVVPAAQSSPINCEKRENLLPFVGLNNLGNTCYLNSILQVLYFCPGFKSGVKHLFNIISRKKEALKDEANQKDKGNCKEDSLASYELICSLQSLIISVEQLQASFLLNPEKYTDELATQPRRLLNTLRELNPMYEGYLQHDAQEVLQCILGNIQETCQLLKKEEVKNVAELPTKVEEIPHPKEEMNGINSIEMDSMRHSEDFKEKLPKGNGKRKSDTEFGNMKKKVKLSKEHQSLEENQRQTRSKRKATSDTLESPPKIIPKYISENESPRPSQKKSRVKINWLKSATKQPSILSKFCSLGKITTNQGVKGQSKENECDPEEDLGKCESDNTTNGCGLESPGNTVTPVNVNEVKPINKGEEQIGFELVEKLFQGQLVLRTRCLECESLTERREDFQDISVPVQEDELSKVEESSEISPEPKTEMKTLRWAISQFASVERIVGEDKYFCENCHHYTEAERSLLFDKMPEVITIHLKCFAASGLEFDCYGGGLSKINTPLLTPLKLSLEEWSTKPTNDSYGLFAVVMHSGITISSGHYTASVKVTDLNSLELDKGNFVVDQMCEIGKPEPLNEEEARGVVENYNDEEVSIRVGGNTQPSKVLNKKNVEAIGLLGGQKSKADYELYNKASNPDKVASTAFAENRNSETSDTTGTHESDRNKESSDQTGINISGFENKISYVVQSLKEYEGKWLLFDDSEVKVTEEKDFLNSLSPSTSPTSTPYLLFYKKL
USP1/UAF1 (Homo sapiens, UniProt O94782), sequence (Q8TAF3 whole entry, further chain): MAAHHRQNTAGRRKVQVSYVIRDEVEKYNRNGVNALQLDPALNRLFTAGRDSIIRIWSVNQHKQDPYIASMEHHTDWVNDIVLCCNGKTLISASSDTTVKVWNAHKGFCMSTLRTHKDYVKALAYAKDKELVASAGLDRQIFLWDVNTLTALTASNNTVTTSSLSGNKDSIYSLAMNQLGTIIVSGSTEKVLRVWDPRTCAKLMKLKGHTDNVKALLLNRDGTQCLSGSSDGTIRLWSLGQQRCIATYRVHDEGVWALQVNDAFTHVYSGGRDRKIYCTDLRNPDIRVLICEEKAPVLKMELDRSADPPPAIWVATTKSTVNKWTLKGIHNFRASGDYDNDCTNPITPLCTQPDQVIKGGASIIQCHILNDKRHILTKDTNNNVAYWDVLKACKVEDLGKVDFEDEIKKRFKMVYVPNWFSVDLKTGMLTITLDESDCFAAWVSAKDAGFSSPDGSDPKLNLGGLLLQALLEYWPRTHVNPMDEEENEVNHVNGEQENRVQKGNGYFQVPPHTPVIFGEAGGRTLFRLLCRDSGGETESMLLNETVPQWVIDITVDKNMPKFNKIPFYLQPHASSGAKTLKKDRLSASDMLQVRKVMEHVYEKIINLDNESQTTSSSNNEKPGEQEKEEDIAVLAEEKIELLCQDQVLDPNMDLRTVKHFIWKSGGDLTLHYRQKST

caspase-6 = target: T1, caspase-6 (Homo sapiens, UniProt P55212); assay: cysteine protease selectivity, caspase-6; assay type: biochemical
T1 sequence (P55212 24-179 limits assumed): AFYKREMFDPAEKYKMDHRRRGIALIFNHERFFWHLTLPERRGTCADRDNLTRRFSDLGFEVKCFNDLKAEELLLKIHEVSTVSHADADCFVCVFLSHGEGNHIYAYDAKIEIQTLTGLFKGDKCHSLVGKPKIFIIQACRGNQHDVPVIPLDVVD
T1 sequence (P55212 194-293 limits assumed): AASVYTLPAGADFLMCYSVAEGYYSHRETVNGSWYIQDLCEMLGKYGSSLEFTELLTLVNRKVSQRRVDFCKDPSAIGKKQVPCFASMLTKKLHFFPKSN

USP5 = target: T2, USP5 (Homo sapiens, UniProt P45974); assay: K63-linked diubiquitin cleavage assay, USP5
T2 sequence (P45974 1-858): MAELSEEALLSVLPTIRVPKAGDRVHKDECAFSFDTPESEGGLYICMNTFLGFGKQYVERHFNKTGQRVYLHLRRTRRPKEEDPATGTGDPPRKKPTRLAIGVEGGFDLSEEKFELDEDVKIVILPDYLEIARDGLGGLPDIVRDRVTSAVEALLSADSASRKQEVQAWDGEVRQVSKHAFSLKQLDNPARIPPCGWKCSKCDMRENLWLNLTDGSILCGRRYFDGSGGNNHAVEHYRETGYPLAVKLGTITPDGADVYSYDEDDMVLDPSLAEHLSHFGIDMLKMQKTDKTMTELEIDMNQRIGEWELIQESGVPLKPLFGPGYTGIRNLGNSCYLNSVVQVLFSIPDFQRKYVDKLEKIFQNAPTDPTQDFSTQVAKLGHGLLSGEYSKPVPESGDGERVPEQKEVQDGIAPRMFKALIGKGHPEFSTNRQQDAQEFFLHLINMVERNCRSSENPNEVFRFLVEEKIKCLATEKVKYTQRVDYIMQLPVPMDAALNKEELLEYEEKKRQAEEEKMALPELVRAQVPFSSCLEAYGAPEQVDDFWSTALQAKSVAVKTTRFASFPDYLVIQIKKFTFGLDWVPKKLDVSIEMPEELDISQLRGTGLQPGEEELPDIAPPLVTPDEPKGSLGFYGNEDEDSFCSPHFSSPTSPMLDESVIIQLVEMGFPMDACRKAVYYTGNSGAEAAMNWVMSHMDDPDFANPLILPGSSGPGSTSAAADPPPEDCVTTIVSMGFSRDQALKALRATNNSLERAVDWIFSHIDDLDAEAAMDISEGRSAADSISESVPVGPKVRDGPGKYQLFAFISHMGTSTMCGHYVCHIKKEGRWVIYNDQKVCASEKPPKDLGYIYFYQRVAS

caspase-3 = target: T3, caspase-3 (Homo sapiens, UniProt P42574); assay: cysteine protease selectivity, caspase-3; assay type: biochemical
T3 sequence (P42574 29-175 limits assumed): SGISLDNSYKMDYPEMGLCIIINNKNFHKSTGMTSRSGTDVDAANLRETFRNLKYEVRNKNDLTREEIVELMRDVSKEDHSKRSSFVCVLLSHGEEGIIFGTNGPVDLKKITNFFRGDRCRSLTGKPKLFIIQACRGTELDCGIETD
T3 sequence (P42574 176-277 limits assumed): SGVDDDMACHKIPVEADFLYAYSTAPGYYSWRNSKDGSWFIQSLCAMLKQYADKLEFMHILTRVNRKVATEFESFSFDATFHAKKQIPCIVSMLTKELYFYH

papain = target: T4, papain (Carica papaya, UniProt P00784); assay: cysteine protease selectivity, papain; assay type: biochemical
T4 sequence (P00784 134-345): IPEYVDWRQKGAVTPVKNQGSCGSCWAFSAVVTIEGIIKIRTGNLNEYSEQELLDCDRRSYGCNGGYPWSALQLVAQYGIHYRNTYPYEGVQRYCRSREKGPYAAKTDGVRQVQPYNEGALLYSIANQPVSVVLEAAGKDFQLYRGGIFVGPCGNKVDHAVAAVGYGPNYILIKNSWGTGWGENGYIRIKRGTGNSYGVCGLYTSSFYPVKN

USP1/UAF1 [3] = target: USP1/UAF1 (Homo sapiens, UniProt O94782+Q8TAF3); assay: reversibility of inhibition by rapid dilution; conditions: incubation at 10 times IC50, 100-fold rapid dilution
USP1/UAF1 (Homo sapiens, UniProt O94782+Q8TAF3), sequence (O94782 whole entry): as the sequence (O94782 whole entry) above
USP1/UAF1 (Homo sapiens, UniProt O94782+Q8TAF3), sequence (Q8TAF3 whole entry): as the sequence (Q8TAF3 whole entry, further chain) above

caspase-1 = target: T5, caspase-1 (Homo sapiens, UniProt P29466); assay: cysteine protease selectivity, caspase-1; assay type: biochemical
T5 sequence (P29466 120-297 limits assumed): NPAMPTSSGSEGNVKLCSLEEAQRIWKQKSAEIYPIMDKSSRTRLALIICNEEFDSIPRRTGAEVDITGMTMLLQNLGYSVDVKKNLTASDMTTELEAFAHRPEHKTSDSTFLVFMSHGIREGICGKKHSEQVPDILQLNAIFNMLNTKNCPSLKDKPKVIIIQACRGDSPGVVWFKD
T5 sequence (P29466 317-404 limits assumed): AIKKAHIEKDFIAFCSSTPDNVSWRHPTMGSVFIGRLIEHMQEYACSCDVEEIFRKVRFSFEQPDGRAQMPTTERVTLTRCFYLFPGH

USP46/UAF1 = USP46/UAF1 (Homo sapiens, UniProt P62068); assay: K63-linked diubiquitin cleavage assay, USP46/UAF1; assay type: biochemical
USP46/UAF1, sequence (P62068 whole entry): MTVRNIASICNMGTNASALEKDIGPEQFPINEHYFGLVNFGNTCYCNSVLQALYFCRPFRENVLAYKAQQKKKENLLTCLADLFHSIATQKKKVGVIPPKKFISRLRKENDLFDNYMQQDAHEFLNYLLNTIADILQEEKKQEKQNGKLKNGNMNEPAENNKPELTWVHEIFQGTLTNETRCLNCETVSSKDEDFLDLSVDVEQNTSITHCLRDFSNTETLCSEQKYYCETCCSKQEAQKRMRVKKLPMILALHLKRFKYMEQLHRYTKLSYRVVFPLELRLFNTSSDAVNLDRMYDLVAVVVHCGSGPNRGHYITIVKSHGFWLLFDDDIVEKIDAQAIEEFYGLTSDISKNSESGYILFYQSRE
USP46/UAF1, sequence (Q8TAF3 whole entry partner): as the sequence (Q8TAF3 whole entry, further chain) above

Row | SMILES | monoubiquitination of PCNA, single agent (Ub-PCNA in HEK293T cells) | percentage of FANCD2 monoubiquitinated [1] | IC50 (USP1/UAF1 [2]) | IC50 (caspase-6) | IC50 (USP5) | IC50 (caspase-3) | IC50 (papain) | reversibility of inhibition (USP1/UAF1 [3]) | IC50 (caspase-1) | IC50 (USP46/UAF1)
1 | N.N.[Cl][Pt][Cl] [Cisplatin, cisplatin] | a small, but significant, percent of Ub-PCNA was detected | approximately 25% | – | – | – | – | – | – | – | –
2 | CC(=O)c1c(O)c(C)c(O)c(Cc2c(O)c3c(c(C(=O)/C=C/c4ccccc4)c2O)OC(C)(C)C=C3)c1O [Rottlerin, rottlerin] | – | – | ≤ 8 µM and 6 to 34 µM | 5 to 45 µM | > 114 µM | 5 to 45 µM | 5 to 45 µM | irreversible inhibitor | 5 to 45 µM | 15 ± 1 µM

From paper PMC3344384 (Chemistry & biology, 2011)
